Measurements from patent US7834024B2, “Compositions and methods for inhibition of the JAK pathway” (Rigel Pharmaceuticals, Inc., priority 2007, dated 2010).
Read-outs that look alike come from different tables or passages of the source.

Tested on: Ramos B-Cell Line Stimulated with IL-4 (JAK-1 and JAK-3 / Stat-6, CD23)
Test: Assay for Ramos B-Cell Line Stimulated with IL-4 (CD23 upregulation, FACS)
Format: cell-based
Settings: human Ramos B cells, compound 1 hour, IL-4 50 units/mL for 20-24 hours, anti-CD23-PE FACS, read-out: Example 2 (IC50)
Source text: One means of assaying for such inhibition is detection of the effect of the 2,4-pyrimidinediamine compounds on the upregulation of downstream gene products. In the Ramos/IL4 assay, B-cells are stimulated with the cytokine Interleukin-4 (IL-4) leading to the activation of the JAK/Stat pathway through phosphorylation of the JAK family kinases, JAK1 and JAK3, which in turn phosphorylate and activate the transcription factor Stat-6. […] To study the effect of inhibitors (e.g., the 2,4-substituted pyrimindinediamine compounds described herein) on the JAK1 and JAK3 kinases, human Ramos B cells are stimulated with human IL-4. 20 to 24 hours post stimulation, cells are stained for upregulation of CD23 and analyzed using flow cytometry (FACS).
B-cells stimulated with cytokine Interleukin-4 (IL-4) activate the JAK/Stat pathway through phosphorylation of the JAK family kinases, JAK-1 and JAK-3, which in turn phosphorylate and activate the transcription factor Stat-6. […] To study the effect of inhibitors on the JAK family kinases, human Ramos B cells were stimulated with human IL-4.
Cells were maintained at a density of 3.5×10^5. The day before the experiment, Ramos B-cells were diluted to 3.5×10^5 cells/mL to ensure that they were in a logarithmic growth phase.
Cells were spun down and suspended in RPMI with 5% serum. 5×10^4 cells were used per point in a 96-well tissue culture plate. Cells were pre-incubated with compound or DMSO (Sigma-Aldrich, St. Louis, Mo., Cat No. D2650) vehicle control for 1 hour in a 37° C. incubator. Cells were then stimulated with IL-4 (Peprotech Inc., Rocky Hill, N.J., Cat No. 200-04) for a final concentration of 50 units/mL for 20-24 hours. […] Detection was performed using a BD LSR I System Flow Cytometer, purchased from Becton Dickinson Biosciences of San Jose, Calif.

Row | SMILES | IC50 (Homo sapiens, Ramos) | IC50
1 | N#CCc1ccc(Nc2nc(Nc3cccc(C#N)c3)ncc2F)cc1 [Compound I-70, N4-(4-Cyanomethylphenyl)-N2-(3-cyanophenyl)-5-fluoro-2,4-pyrimidinediamine] | 1150 nM | –
2 | N#CCc1ccc(Nc2ncc(F)c(Nc3ccc(CC#N)cc3)n2)cc1 [Compound I-71, N2,N4-Bis(4-cyanomethylphenyl)-5-fluoro-2,4-pyrimidinediamine] | 195 nM | –
3 | CN1CCN(C(=O)c2ccc(Nc3ncc(F)c(Nc4ccc(CC#N)cc4)n3)cc2)CC1 [Compound I-72, N4-(4-Cyanomethylphenyl)-5-fluoro-N2-[4-((4-methylpiperazin-1-yl)carbonyl)phenyl]-2,4-pyrimidinediamine] | – | 599 nM
4 | CN1CCN(C(=O)c2ccc(Nc3ncc(F)c(Nc4ccc(CC#N)cc4)n3)cc2)CC1 [Compound I-73, N4-(4-Cyanomethylphenyl)-5-fluoro-N2-[4-((4-methylpiperazin-1-yl)carbonyl)phenyl]-2,4-pyrimidinediamine] | – | 1730 nM
5 | CN1CCN(c2ccc(Nc3ncc(F)c(Nc4ccc(CC#N)cc4)n3)cc2C(N)=O)CC1 [Compound I-74, N2-[3-Aminocarbonyl-4-(4-methylpiperazin-1-yl)phenyl]-N4-(4-cyanomethylphenyl)-5-fluoro-2,4-pyrimidinediamine] | 429 nM | –
6 | CNC(=O)c1cc(Nc2ncc(F)c(Nc3ccc(CC#N)cc3)n2)ccc1N1CCN(C)CC1 [Compound I-75, N4-(4-Cyanomethylphenyl)-5-fluoro-N2-[3-methylaminocarbonyl-4-(4-methylpiperazin-1-yl)phenyl]-2,4-pyrimidinediamine] | 694 nM | –
7 | N#CCc1ccc(Nc2ncc(F)c(Nc3ccc(OCC(N)=O)cc3)n2)cc1 [Compound I-76, N4-(4-Aminocarbonylmethoxyphenyl)-N2-(4-cyanomethylphenyl)-5-fluoro-2,4-pyrimidinediamine] | 278 nM | –
8 | Cc1nc(COc2ccc(Nc3nc(Nc4ccc(CC#N)cc4)ncc3F)cc2)no1 [Compound I-77, N2-(4-Cyanomethylphenyl)-5-fluoro-N4-[4-((5-methyl-1,2,4-oxadiazol-3-yl)methoxy)phenyl]-2,4-pyrimidinediamine] | 247 nM | –
9 | CC(C#N)Oc1ccc(Nc2nc(Nc3ccc(CC#N)cc3)ncc2F)cc1 (stereo not drawn) [Compound I-78, N4-[4-(1-Cyanoethoxy)phenyl]-N2-(4-cyanomethylphenyl)-5-fluoro-2,4-pyrimidinediamine] | 117 nM | –
10 | CC(C#N)Oc1ccc(Nc2nc(Nc3ccc(C#N)cc3)ncc2F)cc1 (stereo not drawn) [Compound I-79, N4-[4-(I-Cyanoethoxy)phenyl]-N2-(4-cyanophenyl)-5-fluoro-2,4-pyrimidinediamine] | – | 361 nM
11 | CC(C#N)Oc1ccc(Nc2nc(Nc3cccc(C#N)c3)ncc2F)cc1 (stereo not drawn) [Compound I-80, N4-[4-(I-Cyanoethoxy)phenyl]-N2-(3-cyanophenyl)-5-fluoro-2,4-pyrimidinediamine] | – | 189 nM
12 | CC(C#N)Oc1ccc(Nc2nc(Nc3ccc(C(N)=O)cc3)ncc2F)cc1 (stereo not drawn) [Compound I-81, N2-(4-Aminocarbonylphenyl)-N4-[4-(1-cyanoethoxy)phenyl]-5-fluoro-2,4-pyrimidinediamine] | 52.9 nM | –
13 | CC(C#N)Oc1ccc(Nc2nc(Nc3cccc(C(N)=O)c3)ncc2F)cc1 (stereo not drawn) [Compound I-82, N2-(3-Aminocarbonylphenyl)-N4-[4-(1-cyanoethoxy)phenyl]-5-fluoro-2,4-pyrimidinediamine] | 350 nM | –
14 | CC(C)(C#N)Oc1ccc(Nc2nc(Nc3ccc(CC#N)cc3)ncc2F)cc1 [Compound I-83, N4-[4-(1-Cyano-1-methylethoxy)phenyl]-N2-(4-cyanomethylphenyl)-5-fluoro-2,4-pyrimidinediamine] | 424 nM | –
15 | CC(C)(C#N)Oc1ccc(Nc2nc(Nc3ccc(C(N)=O)cc3)ncc2F)cc1 [Compound I-84, N2-(4-Aminocarbonylphenyl)-N4-[4-(1-cyano-1-methylethoxy)phenyl]-5-fluoro-2,4-pyrimidinediamine] | 148 nM | –
16 | CC(C)(C#N)Oc1ccc(Nc2nc(Nc3cccc(C(N)=O)c3)ncc2F)cc1 [Compound I-85, N2-(3-Aminocarbonylphenyl)-N4-[4-(1-cyano-1-methylethoxy)phenyl]-5-fluoro-2,4-pyrimidinediamine] | 760 nM | –
17 | Cc1cc(Nc2nc(Nc3ccc(CC#N)cc3)ncc2F)ccc1OCC#N [Compound I-86, N4-(4-Cyanomethoxy-3-methylphenyl)-N2-(4-cyanomethylphenyl)-5-fluoro-2,4-pyrimidinediamine] | 142 nM | –

Row | SMILES | IC50 (Homo sapiens, Ramos) | IC50
18 | Cc1cc(Nc2nc(Nc3ccc(C(N)=O)cc3)ncc2F)ccc1OCC#N [Compound I-87, N2-(4-Aminocarbonylphenyl)-N4-(4-cyanomethoxy-3-methylphenyl)-5-fluoro-2,4-pyrimidinediamine] | 44.4 nM | –
19 | Cc1cc(Nc2nc(Nc3ccc(CC#N)cc3)ncc2F)cc(C)c1OCC#N [Compound I-89, N4-(4-Cyanomethoxy-3,5-dimethylphenyl)-N2-(4-cyanomethylphenyl)-5-fluoro-2,4-pyrimidinediamine] | 167 nM | –
20 | Cc1cc(Nc2nc(Nc3ccc(C(N)=O)cc3)ncc2F)cc(C)c1OCC#N [Compound I-90, N2-(4-Aminocarbonylphenyl)-N4-(4-cyanomethoxy-3,5-dimethylphenyl)-5-fluoro-2,4-pyrimidinediamine] | 91.5 nM | –
21 | Cc1cc(Nc2nc(Nc3cccc(C(N)=O)c3)ncc2F)cc(C)c1OCC#N [Compound I-91, N2-(3-Aminocarbonylphenyl)-N4-(4-cyanomethoxy-3,5-dimethylphenyl)-5-fluoro-2,4-pyrimidinediamine] | 333 nM | –
22 | Cc1cc(Nc2nc(Nc3ccc(C(N)=O)cc3)ncc2F)ccc1OC(C)C#N (stereo not drawn) [Compound I-92, N2-(4-Aminocarbonylphenyl)-N4-[4-(1-cyanoethoxy)-3-methylphenyl]-5-fluoro-2,4-pyrimidinediamine] | 127 nM | –
23 | Cc1cc(Nc2nc(Nc3cccc(C(N)=O)c3)ncc2F)ccc1OC(C)C#N (stereo not drawn) [Compound I-93, N2-(3-Aminocarbonylphenyl)-N4-[4-(1-cyanoethoxy)-3-methylphenyl]-5-fluoro-2,4-pyrimidinediamine] | 331 nM | –
24 | Cc1cc(Nc2nc(Nc3ccc(CC#N)cc3)ncc2F)ccc1OC(C)C#N (stereo not drawn) [Compound I-94, N4-[4-(1-Cyanoethoxy)-3-methylphenyl]-N2-(4-cyanomethylphenyl)-5-fluoro-2,4-pyrimidinediamine] | 381 nM | –
25 | Cc1cc(Nc2nc(Nc3ccc(C(N)=O)cc3)ncc2F)cc(C)c1OC(C)C#N (stereo not drawn) [Compound I-95, N2-(4-Aminocarbonylphenyl)-N4-[4-(1-cyanoethoxy)-3,5-dimethylphenyl]-5-fluoro-2,4-pyrimidinediamine] | 103 nM | –
26 | Cc1cc(Nc2nc(Nc3cccc(C(N)=O)c3)ncc2F)cc(C)c1OC(C)C#N (stereo not drawn) [Compound I-96, N2-(3-Aminocarbonylphenyl)-N4-[4-(1-cyanoethoxy)-3,5-dimethylphenyl]-5-fluoro-2,4-pyrimidinediamine] | 255 nM | –
27 | Cc1cc(Nc2nc(Nc3ccc(CC#N)cc3)ncc2F)cc(C)c1OC(C)C#N (stereo not drawn) [Compound I-97, N4-[4-(1-Cyanoethoxy)-3,5-dimethylphenyl]-N2-(4-cyanomethylphenyl)-5-fluoro-2,4-pyrimidinediamine] | 155 nM | –
28 | N#CCOc1ccc(Nc2nc(Nc3cccc(C(N)=O)c3)ncc2F)cc1Cl [Compound I-99, N2-(3-Aminocarbonylphenyl)-N4-(3-chloro-4-cyanomethoxyphenyl)-5-fluoro-2,4-pyrimidinediamine] | 156 nM | –
29 | N#CCOc1ccc(Nc2nc(Nc3ccc(CC#N)cc3)ncc2F)cc1Cl [Compound I-100, N4-(3-Chloro-4-cyanomethoxyphenyl)-N2-(4-cyanomethylphenyl)-5-fluoro-2,4-pyrimidinediamine] | 83 nM | –
30 | N#CCOc1ccc(Nc2nc(Nc3ccc(C(N)=O)cc3)ncc2F)cc1F [Compound I-101, N2-(4-Aminocarbonylphenyl)-N4-(4-cyanomethoxy-3-fluorophenyl)-5-fluoro-2,4-pyrimidinediamine] | 33.7 nM | –
31 | N#CCOc1ccc(Nc2nc(Nc3cccc(C(N)=O)c3)ncc2F)cc1F [Compound I-102, N2-(3-Aminocarbonylphenyl)-N4-(4-cyanomethoxy-3-fluorophenyl)-5-fluoro-2,4-pyrimidinediamine] | 259 nM | –
32 | N#CCOc1ccc(Nc2nc(Nc3ccc(CC#N)cc3)ncc2F)cc1F [Compound I-103, N4-(4-Cyanomethoxy-3-fluorophenyl)-N2-(4-cyanomethylphenyl)-5-fluoro-2,4-pyrimidinediamine] | 82.7 nM | –
33 | CCc1cc(Nc2ncc(F)c(Nc3ccc(OCC#N)cc3)n2)cc(C#N)c1Cl [Compound I-104, N2-(4-Chloro-3-cyano-5-ethylphenyl)-N4-(4-cyanomethoxyphenyl)-5-fluoro-2,4-pyrimidinediamine] | 1140 nM | –
